In patent US10208059B2, “Heterocyclic modulators of HIF activity for treatment of disease” (Board of Regents, University of Texas System, priority 2012, dated 2019):
Counter-ions that a name gives are not always drawn.

Tested on: 293T-HRE-GFP-luc cells
Test: Cell-based reporter assay for IC50 determinations
Details: hypoxia 6 hrs (1% O2), luminescence, read-out: IC50 Classification
Procedure, shortened: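 IC50 comes from a four-parameter logistic fit of luminescence from HRE-GFP-luc 293T cells. Compounds (1:3 series, 1:50 medium dilution) were preincubated 30 min under normoxia, followed by 6 h at 1% O2, 5% CO2, 37 °C, before Steadylite luciferase detection.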

First: Cc1nc(-c2nc(-c3ccc(OC(F)(F)F)cc3)no2)nn1Cc1ccnc(N2CCN(C)CC2)n1 [Example 20, 5-(5-Methyl-1-((2-(4-methylpiperazin-1-yl)pyrimidin-4-yl)methyl)-1H-1,2,4-triazol-3-yl)-3-(4-(trifluoromethoxy)phenyl)-1,2,4-oxadiazole]
Second: Cc1nc(-c2nc(-c3ccc(OC(F)(F)F)cc3)no2)nn1Cc1ccnc(Cl)n1 [Example 19, 5-(1-((2-Chloropyrimidin-4-yl)methyl)-5-methyl-1H-1,2,4-triazol-3-yl)-3-(4-(trifluoromethoxy)phenyl)-1,2,4-oxadiazole]
The IC50 of the first is lower: < 100 nM for the first, 1000 to 10000 nM for the second.

`Cc1nc(-c2nc(-c3ccc(OC(F)(F)F)cc3)no2)nn1Cc1cccc(OCC(=O)N(C)C)c1` [Example 62, N N-Dimethyl-2-{3-[(5-methyl-3-{3-[4-(trifluoromethoxy)phenyl]-124-oxadiazol-5-yl}-1H-124-triazol-1-yl)methyl]phenoxy}acetamide] and `COCCOc1cccc(Cn2nc(-c3nc(-c4ccc(OC(F)(F)F)cc4)no3)nc2C)c1` [Example 60, 5-(1-{[3-(2-Methoxyethoxy)phenyl]methyl}-5-methyl-1H-1,2,4-triazol-3-yl)-3-[4-(trifluoromethoxy)phenyl]-1,2,4-oxadiazole] cannot be ordered by IC50: < 100 nM for the first, < 100 nM for the second.

`Cc1nc(-c2nc(-c3ccc(OC(F)(F)F)cc3)no2)nn1Cc1cccc(OC2CCN(C)CC2)c1` [Example 73, 1-Methyl-4-{3-[(5-methyl-3-{3-[4-(trifluoromethoxy)phenyl]-1,2,4-oxadiazol-5-yl}-1H-1,2,4-triazol-1-yl)methyl]phenoxy}piperidine] and `Cc1nc(-c2nc(-c3ccc(OC(F)(F)F)cc3)no2)nn1Cc1cccc(N(C)C)c1` [Example 52, N,N-Dimethyl-3-((5-methyl-3-(3-(4-(trifluoromethoxy)phenyl)-1,2,4-oxadiazol-5-yl)-1H-1,2,4-triazol-1-yl)methyl)aniline] cannot be ordered by IC50: < 100 nM for the first, < 100 nM for the second.

First: COCCOc1cccc(Cn2nc(-c3nc(-c4ccc(OC(F)(F)F)cc4)cs3)nc2C)c1 [Example 90, 1-{[3-(2-Methoxyethoxy)phenyl]methyl}-5-methyl-3-{4-[4-(trifluoromethoxy)phenyl]-1,3-thiazol-2-yl}-1H-1,2,4-triazole]
Second: COC(C)(C)CCOc1cccc(Cn2nc(-c3nc(-c4ccc(OC(F)(F)F)cc4)no3)nc2C)c1 [Example 72, 5-(1-{[3-(3-Methoxy-3-methylbutoxy)phenyl]methyl}-5-methyl-1H-1,2,4-triazol-3-yl)-3-[4-(trifluoromethoxy)phenyl]-1,2,4-oxadiazole]
The IC50 of the first is higher: 100 to 1000 nM for the first, < 100 nM for the second. The second is the more potent here.

`Cc1nc(-c2ncc(-c3ccc(OC(F)(F)F)cc3)o2)nn1Cc1ccnc(N2CCN(C)CC2)c1` [Example 92, 1-Methyl-4-{4-[(5-methyl-3-{5-[4-(trifluoromethoxy)phenyl]-1,3-oxazol-2-yl}-1H-1,2,4-triazol-1-yl)methyl]pyridin-2-yl}piperazine] and `Cc1nc(-c2nnc(-c3ccc(OC(F)(F)F)cc3)o2)nn1Cc1cccc(N2CCN(C)CC2)c1` [Example 6, 1-Methyl-4-(3-((5-methyl-3-(5-(4-(trifluoromethoxy)phenyl)-1,3,4-oxadiazol-2-yl)-1H-1,2,4-triazol-1-yl)methyl)phenyl)piperazin-1-ium trifluoroacetate] cannot be ordered by IC50: < 100 nM for the first, < 100 nM for the second.

First: Cc1nc(-c2cc(-c3ccc(OC(F)(F)F)cc3)on2)nn1Cc1ccnc(N2CCC(S(C)(=O)=O)CC2)c1 [Example 97, 3-(5-Methyl-1-((2-(4-(methylsulfonyl)piperidin-1-yl)pyridin-4-yl)methyl)-1H-1,2,4-triazol-3-yl)-5-(4-(trifluoromethoxy)phenyl)isoxazole]
Second: CC(=O)N1CCN(c2cc(Cn3nc(-c4nc(-c5ccc(OC(F)(F)F)cc5)no4)nc3C)ccn2)CC1 [Example 38, 1-(4-(4-((5-Methyl-3-(3-(4-(trifluoromethoxy)phenyl)-1,2,4-oxadiazol-5-yl)-1H-1,2,4-triazol-1-yl)methyl)pyridin-2-yl)piperazin-1-yl)ethanone]
The IC50 of the first is higher: 100 to 1000 nM for the first, < 100 nM for the second. The second is the more potent here.

`Cc1nc(-c2nc(-c3ccc(OC(F)(F)F)cc3)no2)nn1Cc1cccc(S(=O)(=O)NCC(C)(C)O)c1` [Example 138, 2-hydroxy-2-methyl-S-{3-[(5-methyl-3-{3-[4-(trifluoromethoxy)phenyl]-1,2,4-oxadiazol-5-yl}-1H-1,2,4-triazol-1-yl)methyl]phenyl}propane-1-sulfonamido] and `CCCNS(=O)(=O)c1cccc(Cn2nc(-c3nc(-c4ccc(OC(F)(F)F)cc4)no3)nc2C)c1` [Example 137, 3-[(5-methyl-3-{3-[4-(trifluoromethoxy)phenyl]-1,2,4-oxadiazol-5-yl}-1H-1,2,4-triazol-1-yl)methyl]-N-propylbenzene-1-sulfonamide] cannot be ordered by IC50: < 100 nM for the first, < 100 nM for the second.

`Cc1nc(-c2nc(-c3ccccc3)no2)nn1Cc1ccnc(N2CCN(C)CC2)c1` [Example 29, 1-Methyl-4-(4-((5-methyl-3-(3-phenyl-1,2,4-oxadiazol-5-yl)-1H-1,2,4-triazol-1-yl)methyl)pyridin-1-ium-2-yl)piperazin-1-ium bis-trifluoroacetate] and `Cc1nc(-c2nnc(-c3ccccc3)o2)nn1Cc1ccnc(N2CCC(C)(C)CC2)c1` [Example 5, 2-(4,4-Dimethylpiperidin-1-yl)-4-((5-methyl-3-(5-phenyl-1,3,4-oxadiazol-2-yl)-1H-1,2,4-triazol-1-yl)methyl)pyridin-1-ium trifluoroacetate] fall in the same range of IC50: 1000 to 10000 nM for the first, 1000 to 10000 nM for the second.

`FC(F)(F)Oc1ccc(-c2noc(-c3nc(-c4cccnc4)n(Cc4ccccc4)n3)n2)cc1` [Example 4, 3-(1-Benzyl-3-(3-(4-(trifluoromethoxy)phenyl)-1,2,4-oxadiazol-5-yl)-1H-1,2,4-triazol-5-yl)pyridin-1-ium trifluoroacetate] and `Cc1nc(-c2nc(-c3ccc(OC(F)(F)F)cc3)no2)nn1Cc1ccc2ccccc2n1` [Example 113, 5-(5-methyl-1-(quinolin-2-ylmethyl)-1H-1,2,4-triazol-3-yl)-3-(4-(trifluoromethoxy)phenyl)-1,2,4-oxadiazole] cannot be ordered by IC50: < 100 nM for the first, < 100 nM for the second.

First: COCCCNc1nccc(Cn2nc(-c3nc(-c4ccc(OC(F)(F)F)cc4)no3)nc2C)n1 [Example 117, N-(3-methoxypropyl)-4-((5-methyl-3-(3-(4-(trifluoromethoxy)phenyl)-1,2,4-oxadiazol-5-yl)-1H-1,2,4-triazol-1-yl)methyl)pyrimidin-2-amine]
Second: COCCCNc1cc(Cn2nc(-c3nc(-c4ccc(OC(F)(F)F)cc4)no3)nc2C)ccn1 [Example 32, N-(3-Methoxypropyl)-4-((5-methyl-3-(3-(4-(trifluoromethoxy)phenyl)-1,2,4-oxadiazol-5-yl)-1H-1,2,4-triazol-1-yl)methyl)pyridin-2-amine]
The IC50 of the first is higher: 100 to 1000 nM for the first, < 100 nM for the second.

First: Cc1nc(-c2nc(-c3ccc(OC(F)(F)F)cc3)no2)nn1Cc1ccnc(N2CCS(=O)(=O)CC2)c1 [Example 43, 2-(1,1-Dioxidothiomorpholino)-4-((5-methyl-3-(3-(4-(trifluoromethoxy)phenyl)-1,2,4-oxadiazol-5-yl)-1H-1,2,4-triazol-1-yl)methyl)pyridin-1-ium trifluoroacetate]
Second: Cc1nc(-c2nc(-c3ccc(OC(F)(F)F)cc3)no2)nn1Cc1ccnc(N2CCOCC2)c1 [Example 10, 4-(4-((5-Methyl-3-(3-(4-(trifluoromethoxy)phenyl)-1,2,4-oxadiazol-5-yl)-1H-1,2,4-triazol-1-yl)methyl)pyridin-2-yl)morpholine]
The IC50 of the first is higher: 100 to 1000 nM for the first, < 100 nM for the second.

`COCCCNc1cccc(Cn2nc(-c3nc(-c4ccc(OC(F)(F)F)cc4)no3)nc2C)c1` [Example 53, N-(3-Methoxypropyl)-3-((5-methyl-3-(3-(4-(trifluoromethoxy)phenyl)-1,2,4-oxadiazol-5-yl)-1H-1,2,4-triazol-1-yl)methyl)aniline] and `Cc1nc(-c2nc(-c3ccc(OC(F)(F)F)cc3)no2)nn1Cc1cccc(OCCCS(C)(=O)=O)c1` [Example 144, 5-(1-([3-(3-methanesulfonylpropoxy)phenyl]methyl)-5-methyl-1H-1,2,4-triazol-3-yl)-3-[4-(trifluoromethoxy)phenyl]-1,2,4-oxadiazole] cannot be ordered by IC50: < 100 nM for the first, < 100 nM for the second.

First: Cc1nc(-c2ncc(-c3ccc(OC(F)(F)F)cc3)o2)nn1Cc1cccc(O)c1 [Example 156, 3-[(5-methyl-3-{5-[4-(trifluoromethoxy)phenyl]-1,3-oxazol-2-yl}-1H-1,2,4-triazol-1-yl)methyl]phenol]
Second: C=Cc1cccc(Cn2nc(-c3nc(-c4ccc(OC(F)(F)F)cc4)no3)nc2C)c1 [Example 84, 5-{1-[(3-Ethenylphenyl)methyl]-5-methyl-1H-1,2,4-triazol-3-yl}-3-[4-(trifluoromethoxy)phenyl]-1,2,4-oxadiazole]
The IC50 of the first is higher: 1000 to 10000 nM for the first, 100 to 1000 nM for the second.

First: Cc1nc(-c2noc(-c3ccc(C(C)(C)C)cc3)n2)nn1Cc1cccc(N2CCN(C)CC2)c1 [Example 116, 5-(4-(tert-butyl)phenyl)-3-(5-methyl-1-(3-(4-methylpiperazin-1-yl)benzyl)-1H-1,2,4-triazol-3-yl)-1,2,4-oxadiazole]
Second: Cc1nc(-c2nc(-c3ccc(OC(F)(F)F)cc3)no2)nn1Cc1ccc(C(=O)N2CCN(C)CC2)cc1 [Example 42, (4-((5-Methyl-3-(3-(4-(trifluoromethoxy)phenyl)-1,2,4-oxadiazol-5-yl)-1H-1,2,4-triazol-1-yl)methyl)phenyl)(4-methylpiperazin-1-yl)methanone]
The IC50 of the first is lower: < 100 nM for the first, 100 to 1000 nM for the second. The first is the more potent here.

Compound `Cc1nc(-c2nc(-c3ccc(OC(F)(F)F)cc3)no2)nn1Cc1ccc(Cl)s1` [Example 47, 5-(1-((5-Chlorothiophen-2-yl)methyl)-5-methyl-1H-1,2,4-triazol-3-yl)-3-(4-(trifluoromethoxy)phenyl)-1,2,4-oxadiazole] has an IC50 of 100 to 1000 nM.
